Laboratory results published in ChEMBL document CHEMBL1146485, “Plant substances as anti-HIV agents selected according to their putative mechanism of action” (J Nat Prod, 2004).

Tests used:
[1] = system: Human immunodeficiency virus 1; test: Selectivity for HIV1 integrase over HIV1 reverse transcriptase
[2] = Elimination half life in po dosed human; type: ADME, organism-based; conditions: in vivo, read-out: beta t1/2 (converted)

fold change (FC) [1]	half-life [2]	SMILES
10		O=C(/C=C/c1ccc(O)c(O)c1)O[C@@H]1C[C@](O)(C(=O)O)C[C@@H](OC(=O)/C=C/c2ccc(O)c(O)c2)[C@H]1O
	900 min	CCCc1cc(=O)oc2c3c(c4c(c12)OC(C)(C)C=C4)O[C@H](C)[C@@H](C)[C@@H]3O [CALANOLIDE A]
10		O=C(/C=C/c1ccc(O)c(O)c1)O[C@@H](C(=O)O)[C@@H](OC(=O)/C=C/c1ccc(O)c(O)c1)C(=O)O
